Km data for 1 compound are collected here from article PMC8053192, “Engineering of a borneol dehydrogenase from P. putida for the enzymatic resolution of camphor” (Applied Microbiology and Biotechnology, 2021).

The experiment relates to T1, glucose dehydrogenase (GDH) from Pseudomonas sp.
T1 construct: commercial enzyme, Sigma-Aldrich (UK)
The experiment is described as follows: steady-state kinetics, Michaelis-Menten fit. It is filed as biochemical. The conditions noted are these: pH 5.0, 30 °C; NAD+ as co-substrate; read-out: apparent Km.

For `OC[C@H]1OC(O)[C@H](O)[C@@H](O)[C@@H]1O` (stereo partly shown) [glucose], the Km amounted to 3.6 ± 0.35 mM.

Usually Km stands for the concentration of substrate that gives half-maximal velocity.
